Experimental data from patent US20250222003A1, “PHARMACEUTICAL COMPOSITION FOR TREATING SOLID TUMORS” (Eisai R&D Management Co., Ltd., priority 2021, published 2025).
Like-named read-outs stand apart in the source and are kept apart here. Marks after values point to notes of the source that are not given here.

Assays:
[1] = Pharmacokinetics of Compound A, phase I dose-escalation part (plasma); assay type: in vivo, human; conditions: for AUC(0-t) / Cmax / Tmax / AUC / half-life: human, plasma, oral; for AUC(0-t): read-out: AUC(0-12 h); for half-life: read-out: Effective t1/2 (converted)
Protocol: In the treatment phase, Compound A (an oral formulation containing Compound A) is administered to the subjects of administration in one cycle of 28 days. The subjects continued to receive Compound A until disease progression, development of intolerable side effects, the desire for discontinuation of administration and consent withdrawal by the subjects of administration, or trial discontinuation by the clinical trial client. One cycle is 28 days of administration, and such an abbreviation as “C1D28” indicates the number of cycles and the number of days in the cycle, for example, “C1D28” means the 28th day of cycle 1 (the first cycle). The subjects of administration were hospitalized until the time of […] and took a medical consultation and physical examination at the time of C1D15, and if the principal investigator or sub investigator was judged, from the results, that there were no medical problems, the subjects were allowed to leave the hospital. If administration was to be continued after the completion of the medical consultation and physical examination at the time of C2D1, written consent for continuation was obtained before administration at the time of C2D1.
Tablets containing Compound A are used as Compound A and administered orally repeatedly twice daily (BID). The subjects fasted 2 hours before and 1 hour after administration. The tablets were taken with water and, if possible, at the prescribed time, but if this was not possible, the tablets were taken 8 hours or more after the previous administration.
In the dose-escalation part, blood was collected from the subjects of administration according to the schedule shown in Table 5, and the pharmacokinetics of Compound A was evaluated. In the expansion part, blood was collected from the subjects of administration before the first administration at C1D1 and CID8, 0.5, 1 and 2 hours after the oral administration of Compound A, and before the first administration at C2D1, and the pharmacokinetics of Compound A was evaluated. The data for C1D1 (the first day of the first cycle) corresponds to the results of a single-dose administration, and the data for C1D8 (the eighth day of the first cycle) corresponds to the results after multiple-dose administration for 8 days at 2 doses per 1 day.
a Based on 5 patients; b based on 2 patients; c based on 3 patients. tmax is reported as median (range). All other values are reported as geometric mean (% CV). Parameters with two patients are reported for both patients.

[2] = tested on: patients with a solid tumor; assay: Suppression of nausea or vomiting associated with administration of Compound A by antiemetics; assay type: in vivo, human
Source text: For subjects of administration that had the gastrointestinal symptoms, nausea or vomiting, the results of administration of various antiemetics were investigated to determine whether they could suppress the occurrence of nausea or vomiting. The antiemetics used were domperidone ([…], Nauzelin tablet), metoclopramide (peripheral D2 receptor antagonist, metoclopramide tablet), ramosetron hydrochloride (5-HT3 receptor antagonist, Nasea tablet), granisetron (5-HT3 receptor antagonist (Kytril tablet), and the like.
The antiemetics were timely administered to 20 subjects of administration that complained of vomiting during Cycle 1.
FIGS. 1 and 2 are graphs showing the relationship between Cmax(Cmax,ss) or AUC (AUC(0-tau),ss) and the vomiting flag for each test subject at the time of CID8. For example, the vomiting flag 3 means a case in which treatment with an antiemetic other than the 5-HT3 receptor antagonist was first attempted but vomiting could not be suppressed, and vomiting could be suppressed when the antiemetic was switched to the 5-HT3 receptor antagonist.
Five additional patients were investigated whether the occurrence of nausea or vomiting, which is an adverse event having a causal relationship with Compound A, could be suppressed. Ramosetron hydrochloride or granisetron hydrochloride (5-HT3 receptor antagonist) was administered to four patients of administration that complained of vomiting during Cycle 1. Of the four patients that complained of vomiting, three patients received granisetron hydrochloride to prevent the gastrointestinal symptoms (nausea, vomiting) associated with administration of Compound A.

[3] = C1D8, 160 mg BID (n = 2), both patients
[4] = 160 mg, C1D8, 160 mg BID (n = 2), both patients

Effective t1/2 ([1]; C1D8, 20 mg BID, based on 2 patients, both patients): 18.0 ^b h | C max, ss [1, 3]: 3850 ng/mL | Effective t1/2 [1, 3]: 25.6 h | t max, ss [1, 3]: 1.00, 1.00 h | AUC(0-t) ([1]; 10 mg, C1D1, 10 mg BID (n = 3), geometric mean): 131 ng·h/mL | Cmax ([1]; 10 mg, C1D1, 10 mg BID (n = 3), geometric mean, read-out: Cmax): 37.2 ng/mL | Tmax ([1]; 10 mg, C1D1, 10 mg BID (n = 3), median): 2 h | AUC ([1]; 10 mg, C1D8, 10 mg BID (n = 3), geometric mean, read-out: AUC (0-tau), ss): 210 ng·h/mL | Cmax ([1]; 10 mg, C1D8, 10 mg BID (n = 3), geometric mean, read-out: C max, ss): 53.9 ng/mL | Tmax ([1]; 10 mg, C1D8, 10 mg BID (n = 3), median): 2 h | AUC(0-t) ([1]; 15 mg, C1D1, 15 mg BID (n = 4), geometric mean): 310 ng·h/mL | Cmax ([1]; 15 mg, C1D1, 15 mg BID (n = 4), geometric mean, read-out: Cmax): 135 ng/mL | Tmax ([1]; 15 mg, C1D1, 15 mg BID (n = 4), median): 0.75 h | AUC ([1]; 15 mg, C1D8, 15 mg BID (n = 4), geometric mean, read-out: AUC (0-tau), ss): 504 ng·h/mL | Cmax ([1]; 15 mg, C1D8, 15 mg BID (n = 4), geometric mean, read-out: C max, ss): 159 ng/mL | half-life ([1]; 15 mg, C1D8, 15 mg BID (n = 4), geometric mean): 7.1 h | Tmax ([1]; 15 mg, C1D8, 15 mg BID (n = 4), median): 0.75 h | AUC(0-t) ([1]; 20 mg, C1D1, 20 mg BID (n = 3), geometric mean): 501 ng·h/mL | Cmax ([1]; 20 mg, C1D1, 20 mg BID (n = 3), geometric mean, read-out: Cmax): 146 ng/mL | Tmax ([1]; 20 mg, C1D1, 20 mg BID (n = 3), median): 1 h | AUC ([1]; 20 mg, C1D8, 20 mg BID (n = 3), geometric mean, read-out: AUC (0-tau), ss): 866 ng·h/mL | Cmax ([1]; 20 mg, C1D8, 20 mg BID (n = 3), geometric mean, read-out: C max, ss): 278 ng/mL | Tmax ([1]; 20 mg, C1D8, 20 mg BID (n = 3), median): 0.5 h | half-life ([1]; 20 mg, C1D8, 20 mg BID, based on 2 patients, both patients): 12.2 h | AUC(0-t) ([1]; 30 mg, C1D1, 30 mg BID (n = 3), geometric mean): 349 ng·h/mL | Cmax ([1]; 30 mg, C1D1, 30 mg BID (n = 3), geometric mean, read-out: Cmax): 105 ng/mL | Tmax ([1]; 30 mg, C1D1, 30 mg BID (n = 3), median): 2 h | AUC ([1]; 30 mg, C1D8, 30 mg BID (n = 3), geometric mean, read-out: AUC (0-tau), ss): 396 ng·h/mL | Cmax ([1]; 30 mg, C1D8, 30 mg BID (n = 3), geometric mean, read-out: C max, ss): 68.3 ng/mL | Tmax ([1]; 30 mg, C1D8, 30 mg BID (n = 3), median): 2 h | AUC(0-t) ([1]; 45 mg, C1D1, 45 mg BID (n = 4), geometric mean): 865 ng·h/mL | Cmax ([1]; 45 mg, C1D1, 45 mg BID (n = 4), geometric mean, read-out: Cmax): 209 ng/mL | Tmax ([1]; 45 mg, C1D1, 45 mg BID (n = 4), median): 1 h | AUC ([1]; 45 mg, C1D8, 45 mg BID (n = 4), geometric mean, read-out: AUC (0-tau), ss): 1070 ng·h/mL | Cmax ([1]; 45 mg, C1D8, 45 mg BID (n = 4), geometric mean, read-out: C max, ss): 199 ng/mL | half-life ([1]; 45 mg, C1D8, 45 mg BID (n = 4), geometric mean): 6.59 h | Tmax ([1]; 45 mg, C1D8, 45 mg BID (n = 4), median): 3 h | AUC(0-t) ([1]; 80 mg, C1D1, 80 mg BID (n = 3), geometric mean): 758 ng·h/mL | Cmax ([1]; 80 mg, C1D1, 80 mg BID (n = 3), geometric mean, read-out: Cmax): 279 ng/mL | Tmax ([1]; 80 mg, C1D1, 80 mg BID (n = 3), median): 2 h | AUC ([1]; 80 mg, C1D8, 80 mg BID (n = 3), geometric mean, read-out: AUC (0-tau), ss): 2100 ng·h/mL | Cmax ([1]; 80 mg, C1D8, 80 mg BID (n = 3), geometric mean, read-out: C max, ss): 737 ng/mL | half-life ([1]; 80 mg, C1D8, 80 mg BID (n = 3), geometric mean): 17.4 h | Tmax ([1]; 80 mg, C1D8, 80 mg BID (n = 3), median): 1 h | AUC(0-t) ([1]; 100 mg, C1D1, 100 mg BID (n = 6), geometric mean): 1420 ng·h/mL | Cmax ([1]; 100 mg, C1D1, 100 mg BID (n = 6), geometric mean, read-out: Cmax): 443 ng/mL | Tmax ([1]; 100 mg, C1D1, 100 mg BID (n = 6), median): 0.5 h | Cmax ([1]; 100 mg, C1D8, 100 mg BID (n = 6), geometric mean, read-out: C max, ss): 862 ng/mL | half-life ([1]; 100 mg, C1D8, 100 mg BID (n = 6), geometric mean): 13 h | Tmax ([1]; 100 mg, C1D8, 100 mg BID (n = 6), median): 1 h | AUC ([1]; 100 mg, C1D8, 100 mg BID, based on 5 patients, geometric mean, read-out: AUC (0-tau), ss): 2700 ng·h/mL | AUC(0-t) ([1]; 120 mg, C1D1, 120 mg BID (n = 3), geometric mean): 1910 ng·h/mL | Cmax ([1]; 120 mg, C1D1, 120 mg BID (n = 3), geometric mean, read-out: Cmax): 557 ng/mL | Tmax ([1]; 120 mg, C1D1, 120 mg BID (n = 3), median): 2 h | AUC(0-t) ([1]; 120 mg, C1D1, 120 mg BID (n = 8, incl. additional cases), geometric mean): 1910 ng·h/mL | Cmax ([1]; 120 mg, C1D1, 120 mg BID (n = 8, incl. additional cases), geometric mean, read-out: Cmax): 557 ng/mL | Tmax ([1]; 120 mg, C1D1, 120 mg BID (n = 8, incl. additional cases), median): 2 h | AUC ([1]; 120 mg, C1D8, 120 mg BID (n = 3), geometric mean, read-out: AUC (0-tau), ss): 2460 ng·h/mL | Cmax ([1]; 120 mg, C1D8, 120 mg BID (n = 3), geometric mean, read-out: C max, ss): 737 ng/mL | half-life ([1]; 120 mg, C1D8, 120 mg BID (n = 3), geometric mean): 5.49 h | Tmax ([1]; 120 mg, C1D8, 120 mg BID (n = 3), median): 1 h | AUC ([1]; 120 mg, C1D8, 120 mg BID (n = 8), based on n = 7 subjects, geometric mean, read-out: AUC (0-tau), ss): 2460 ng·h/mL | Cmax ([1]; 120 mg, C1D8, 120 mg BID (n = 8), based on n = 7 subjects, geometric mean, read-out: C max, ss): 751 ng/mL | Tmax ([1]; 120 mg, C1D8, 120 mg BID (n = 8), based on n = 7 subjects, median): 1 h | AUC ([1]; 160 mg BID, C1D8, read-out: lowest value of AUC(0-tau),ss of the subjects in which vomiting could not be suppressed even after the 5-HT3 receptor antagonist): 9060 ng·h/mL | Tmax ([1]; 160 mg, C1D1, 160 mg BID (n = 2), both patients): 0.5 h | Tmax [1, 4]: 1 h | Cmax ([1]; 160 mg, C1D8, 160 mg BID (n = 2), both patients, read-out: C max, ss): 2980 ng/mL | half-life [1, 4]: 17.5 h | AUC ([1]; C1D8, read-out: highest value of AUC(0-tau),ss of the subjects in which vomiting could be suppressed by the 5-HT3 receptor antagonist): 7640 ng·h/mL
SMILES: C=CCN1CC(=O)N2[C@@H](Cc3ccc(O)cc3F)C(=O)N(Cc3cccc(N4CC(N5CCN(CC)CC5)C4)n3)C[C@@H]2N1C(=O)NCc1ccccc1 [Compound A, (6S,9aS)—N-benzyl-8-({6-[3-(4-ethylpiperazin-1-yl)azetidin-1-yl]pyridin-2-yl}methyl)-6-(2-fluoro-4-hydroxybenzyl)-4,7-dioxo-2-(prop-2-en-1-yl)hexahydro-2H-pyrazino[2,1-c][1,2,4]triazine-1 (6H)-carboxamide]
relation of exposure to dosage ([1]; 10-160 mg BID, Tables 6 and 7): exposure amount increased as the dosage of Compound A increased | Vomiting flag 0, N: neither nausea nor vomiting observed, or antiemetics not required ([2]; Table 10, before additional cases): 10 | Vomiting flag 0, N: neither nausea nor vomiting observed, or antiemetics not required ([2]; Table 14, entire dose-escalation part incl. additional cases): 11
